Assay results from US12077503B2, “Substituted cyclic amides and their use as herbicides” (FMC CORPORATION, priority 2015, dated 2024).

How the values were obtained:
Assay type in all cases: in vivo
[1] = system: ducksalad (Heteranthera limosa); assay: Test B flooded paddy test; conditions: Flood, 250 g ai/ha; 0 to 100 scale where 0 is no effect and 100 is complete control; 13 to 15 d
Experimental: (§1) Plant species in the flooded paddy test selected from rice (Oryra sativa), sedge, umbrella (small-flower umbrella sedge, Cyperus difformis), ducksalad (Heteranthera limosa), and barnyardgrass (Echinochloa crus-galli) were grown to the 2-leaf stage for testing. At time of treatment, test pots were flooded to 3 cm above the soil surface, treated by application of test compounds directly to the paddy water, and then maintained at that water depth for the duration of the test. Treated plants and controls were maintained in a greenhouse for 13 to 15 d, after which time all species were compared to controls and visually evaluated. Plant response ratings, summarized in Table B, are based on a scale of 0 to 100 where 0 is no effect and 100 is complete control. A dash (-) response means no test result.

[2] = system: sedge, umbrella (small-flower umbrella sedge, Cyperus difformis); assay: Test B flooded paddy test; conditions: Flood, 250 g ai/ha; 0 to 100 scale where 0 is no effect and 100 is complete control; 13 to 15 d
Experimental: as §1

[3] = system: barnyardgrass (Echinochloa crus-galli); assay: Test B flooded paddy test; conditions: Flood, 250 g ai/ha; 0 to 100 scale where 0 is no effect and 100 is complete control; 13 to 15 d
Experimental: as §1

[4] = system: rice (Oryra sativa); assay: Test B flooded paddy test; conditions: Flood, 250 g ai/ha; 0 to 100 scale where 0 is no effect and 100 is complete control; 13 to 15 d
Experimental: as §1

[5] = system: pigweed (Amaranthus retroflexus); assay: Test A postemergence; conditions: for Pigweed plant response rating: 125 g ai/ha, postemergence, visual injury rating on 0 to 100 scale (0 no effect, 100 complete control), approx. 10 d; for Plant response rating, Pigweed: Postemergence, 500 g ai/ha, 0 to 100 scale where 0 is no effect and 100 is complete control
Text: (§2) Seeds of plant species selected from barnyardgrass (Echinochloa crus-galli), Kochia (Kochia scoparia), ragweed (common ragweed, Ambrosia elatior), ryegrass, Italian (Italian ryegrass, Lolium multiflorum), crabgrass, large (Digitaria sanguinalis), giant foxtail (Setaria faberii), green foxtail (Setaria viridis), morningglory (Ipomoea spp.), pigweed (Amaranthus retroflexus), velvetleaf (Abutilon theophrasti), wheat (Triticum aestivum), and corn (Zea mays) were planted into a blend of loam soil and sand and treated preemergence with a directed soil spray using test chemicals formulated in anon-phytotoxic solvent mixture which included a surfactant.
(§3) At the same time, plants selected from these crop and weed species and also blackgrass (Alopecurus myosuroides), and Galium (catchweed bedstraw, Galium aparine) were planted in pots containing the same blend of loam soil and sand and treated with postemergence applications of test chemicals formulated in the same manner. Plants ranged in height from 2 to 10 cm and were in the one- to two-leaf stage for the postemergence treatment. Treated plants and untreated controls were maintained in a greenhouse for approximately 10 d, after which time all treated plants were compared to untreated controls and visually evaluated for injury. Plant response ratings, summarized in Table A, are based on a 0 to 100 scale where 0 is no effect and 100 is complete control. A dash (-) response means no test result.

[6] = system: blackgrass (Alopecurus myosuroides); assay: Test A postemergence; conditions: for Blackgrass plant response rating: 125 g ai/ha, visual injury rating on 0 to 100 scale (0 no effect, 100 complete control), approx. 10 d; for Plant response rating, Blackgrass: 500 g ai/ha
Text: as §2, §3

[7] = system: barnyardgrass (Echinochloa crus-galli); assay: Test A postemergence; conditions: for Barnyardgrass plant response rating: 125 g ai/ha, visual injury rating on 0 to 100 scale (0 no effect, 100 complete control), approx. 10 d; for Plant response rating, Barnyardgrass: 500 g ai/ha
Text: as §2, §3

[8] = system: giant foxtail (Setaria faberii); assay: Test A postemergence; conditions: for Foxtail, Giant plant response rating: 125 g ai/ha, postemergence, visual injury rating on 0 to 100 scale (0 no effect, 100 complete control), approx. 10 d; for Plant response rating, Foxtail, Giant: Postemergence, 500 g ai/ha, 0 to 100 scale where 0 is no effect and 100 is complete control
Text: as §2, §3

[9] = system: ragweed (common ragweed, Ambrosia elatior); assay: Test A postemergence; conditions: for Ragweed plant response rating: 125 g ai/ha, postemergence, visual injury rating on 0 to 100 scale (0 no effect, 100 complete control), approx. 10 d; for Plant response rating, Ragweed: Postemergence, 500 g ai/ha, 0 to 100 scale where 0 is no effect and 100 is complete control
Text: as §2, §3

[10] = system: corn (Zea mays); assay: Test A postemergence; conditions: for Corn plant response rating: 125 g ai/ha, visual injury rating on 0 to 100 scale (0 no effect, 100 complete control), approx. 10 d; for Plant response rating, Corn: 500 g ai/ha
Text: as §2, §3

[11] = system: Kochia (Kochia scoparia); assay: Test A postemergence; conditions: for Kochia plant response rating: 125 g ai/ha, postemergence, visual injury rating on 0 to 100 scale (0 no effect, 100 complete control), approx. 10 d; for Plant response rating, Kochia: Postemergence, 500 g ai/ha, 0 to 100 scale where 0 is no effect and 100 is complete control
Text: as §2, §3

[12] = system: ryegrass, Italian (Italian ryegrass, Lolium multiflorum); assay: Test A postemergence; conditions: for Ryegrass, Italian plant response rating: 125 g ai/ha, postemergence, visual injury rating on 0 to 100 scale (0 no effect, 100 complete control), approx. 10 d; for Plant response rating, Ryegrass, Italian: Postemergence, 500 g ai/ha, 0 to 100 scale where 0 is no effect and 100 is complete control
Text: as §2, §3

[13] = system: wheat (Triticum aestivum); assay: Test A postemergence; conditions: for Wheat plant response rating: 125 g ai/ha, postemergence, visual injury rating on 0 to 100 scale (0 no effect, 100 complete control), approx. 10 d; for Plant response rating, Wheat: Postemergence, 500 g ai/ha, 0 to 100 scale where 0 is no effect and 100 is complete control
Text: as §2, §3

[14] = system: Galium (catchweed bedstraw, Galium aparine); assay: Test A postemergence; conditions: for Galium plant response rating: 125 g ai/ha, postemergence, visual injury rating on 0 to 100 scale (0 no effect, 100 complete control), approx. 10 d; for Plant response rating, Galium: Postemergence, 500 g ai/ha, 0 to 100 scale where 0 is no effect and 100 is complete control
Text: as §2, §3

[15] = system: pigweed (Amaranthus retroflexus); assay: Test A preemergence; conditions: Preemergence; for Plant response rating, Pigweed: 125 g ai/ha, visual injury after approximately 10 d, 0 to 100 scale where 0 is no effect and 100 is complete control; for Pigweed plant response rating (0 to 100 scale, 0 is no effect, 100 is complete control): 500 g ai/ha, visual injury approx. 10 d
Text: as §2, §3

[16] = system: barnyardgrass (Echinochloa crus-galli); assay: Test A preemergence; conditions: for Plant response rating, Barnyardgrass: 125 g ai/ha; for Barnyardgrass plant response rating (0 to 100 scale, 0 is no effect, 100 is complete control): 500 g ai/ha, visual injury approx. 10 d
Text: as §2, §3

[17] = system: giant foxtail (Setaria faberii); assay: Test A preemergence; conditions: for Plant response rating, Foxtail, Giant: 125 g ai/ha; for Foxtail, Giant plant response rating (0 to 100 scale, 0 is no effect, 100 is complete control): 500 g ai/ha, visual injury approx. 10 d
Text: as §2, §3

[18] = system: ragweed (common ragweed, Ambrosia elatior); assay: Test A preemergence; conditions: Preemergence; for Plant response rating, Ragweed: 125 g ai/ha, visual injury after approximately 10 d, 0 to 100 scale where 0 is no effect and 100 is complete control; for Ragweed plant response rating (0 to 100 scale, 0 is no effect, 100 is complete control): 500 g ai/ha, visual injury approx. 10 d
Text: as §2, §3

[19] = system: Kochia (Kochia scoparia); assay: Test A preemergence; conditions: for Plant response rating, Kochia: 125 g ai/ha; for Kochia plant response rating (0 to 100 scale, 0 is no effect, 100 is complete control): 500 g ai/ha, visual injury approx. 10 d
Text: as §2, §3

[20] = system: ryegrass, Italian (Italian ryegrass, Lolium multiflorum); assay: Test A preemergence; conditions: Preemergence; for Plant response rating, Ryegrass, Italian: 125 g ai/ha, visual injury after approximately 10 d, 0 to 100 scale where 0 is no effect and 100 is complete control; for Ryegrass, Italian plant response rating (0 to 100 scale, 0 is no effect, 100 is complete control): 500 g ai/ha, visual injury approx. 10 d
Text: as §2, §3

[21] = Postemergence, 0 to 100 scale where 0 is no effect and 100 is complete control
[22] = Preemergence, visual injury after approximately 10 d, 0 to 100 scale where 0 is no effect and 100 is complete control
[23] = postemergence, 0 to 100 scale, 0 no effect, 100 complete control
[24] = preemergence, 0 to 100 scale (0 no effect, 100 complete control)

Row | SMILES | Plant response rating, Ducksalad [1] | Plant response rating, Sedge, Umbrella [2] | Plant response rating, Barnyardgrass [3] | Plant response rating, Rice [4] | Pigweed plant response rating [5] | Plant response rating, Pigweed [5] | Blackgrass plant response rating ([6]; postemergence) | Barnyardgrass plant response rating ([7]; postemergence) | Foxtail, Giant plant response rating [8] | Plant response rating, Foxtail, Giant [8] | Ragweed plant response rating [9] | Plant response rating, Ragweed [9] | Corn plant response rating ([10]; postemergence) | Kochia plant response rating [11] | Plant response rating, Kochia [11] | Ryegrass, Italian plant response rating [12] | Plant response rating, Ryegrass, Italian [12] | Wheat plant response rating [13] | Plant response rating, Wheat [13] | Galium plant response rating [14] | other results
1 | COCc1cccc(C2CNC(=O)C2C(=O)Nc2ccccc2Cl)c1 (stereo not drawn) [Compound 498] | 90 | 0 | 45 | 0 | 0 | 0 | 0 | 30 | 20 | 40 | 0 | 0 | 0 | 0 | 0 | 0 | 0 | 0 | 0 | 0 | Plant response rating, Blackgrass [6, 21]: 0; Plant response rating, Barnyardgrass [7, 21]: 70; Plant response rating, Corn [10, 21]: 0; Plant response rating, Galium [14]: 0; Plant response rating, Pigweed [15]: 0; Pigweed plant response rating (0 to 100 scale, 0 is no effect, 100 is complete control) [15]: 0; Plant response rating, Barnyardgrass [16, 22]: 30; Barnyardgrass plant response rating (0 to 100 scale, 0 is no effect, 100 is complete control) ([16]; Preemergence): 90; Plant response rating, Foxtail, Giant [17, 22]: 40; Foxtail, Giant plant response rating (0 to 100 scale, 0 is no effect, 100 is complete control) ([17]; Preemergence): 80; Plant response rating, Ragweed [18]: 0; Ragweed plant response rating (0 to 100 scale, 0 is no effect, 100 is complete control) [18]: 0; Plant response rating, Kochia [19, 22]: 0; Kochia plant response rating (0 to 100 scale, 0 is no effect, 100 is complete control) ([19]; Preemergence): 0; Plant response rating, Ryegrass, Italian [20]: 0; Ryegrass, Italian plant response rating (0 to 100 scale, 0 is no effect, 100 is complete control) [20]: 0
2 | CC(C)=CCN1CC(c2cccc(C(F)(F)F)c2)C(C(=O)Nc2cccc(F)c2F)C1=O (stereo not drawn) [Compound 477] | 0 | 0 | 0 | 0 | 0 | 0 | 0 | 40 | 40 | 70 | 0 | 0 | 0 | 0 | 0 | 0 | 0 | 0 | 40 | 0 | Plant response rating, Blackgrass [6, 23]: 30; Plant response rating, Barnyardgrass [7, 23]: 70; Plant response rating, Corn [10, 23]: 40; Plant response rating, Galium [14]: 0; Plant response rating, Pigweed [15]: 0; Pigweed plant response rating (0 to 100 scale, 0 is no effect, 100 is complete control) [15]: 0; Plant response rating, Barnyardgrass [16, 24]: 20; Barnyardgrass plant response rating (0 to 100 scale, 0 is no effect, 100 is complete control) ([16]; Preemergence): 90; Plant response rating, Foxtail, Giant [17, 24]: 90; Foxtail, Giant plant response rating (0 to 100 scale, 0 is no effect, 100 is complete control) ([17]; Preemergence): 90; Plant response rating, Ragweed [18]: 0; Ragweed plant response rating (0 to 100 scale, 0 is no effect, 100 is complete control) [18]: 0; Plant response rating, Kochia [19, 24]: 0; Kochia plant response rating (0 to 100 scale, 0 is no effect, 100 is complete control) ([19]; Preemergence): 0; Plant response rating, Ryegrass, Italian [20]: 0; Ryegrass, Italian plant response rating (0 to 100 scale, 0 is no effect, 100 is complete control) [20]: 0
